Source: the supplement of paper PMC10307832

What was measured:
Assay in all cases: relative viability (nuclei count vs DMSO), 5 days (fraction); higher = more cells survive
Alisertib + OSI-027 = compound: COc1cc(Nc2ncc3c(n2)-c2ccc(Cl)cc2C(c2c(F)cccc2OC)=NC3)ccc1C(=O)O [Alisertib] + COc1cccc2cc(-c3nc([C@H]4CC[C@H](C(=O)O)CC4)n4ncnc(N)c34)[nH]c12 [OSI-027] (partner 0.5 µM)
How it was run: (§1)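 Lung cancer cell lines were seeded in 1536-well plates and dosed by pin tool the next day, with either a single drug or a fixed anchor-drug dose combined with five library-drug doses (not always all listed) spaced in √10 steps. Five days later, one step fixed the cells and stained their nuclei (final 0.05% Triton X-100, 1% formaldehyde, 1 ug/ml Hoechst), and nuclei were counted on 4× images. Relative viability is the nuclei count in treated wells divided by the count in vehicle wells, and each value is the median of duplicate plates.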

Alisertib + Luminespib = compound: COc1cc(Nc2ncc3c(n2)-c2ccc(Cl)cc2C(c2c(F)cccc2OC)=NC3)ccc1C(=O)O [Alisertib] + CCNC(=O)c1noc(-c2cc(C(C)C)c(O)cc2O)c1-c1ccc(CN2CCOCC2)cc1 [Luminespib] (partner 0.01 µM)
How it was run: as §1

Alisertib + Linsitinib = compound: COc1cc(Nc2ncc3c(n2)-c2ccc(Cl)cc2C(c2c(F)cccc2OC)=NC3)ccc1C(=O)O [Alisertib] + C[C@]1(O)C[C@@H](c2nc(-c3ccc4ccc(-c5ccccc5)nc4c3)c3c(N)nccn32)C1 [Linsitinib] (partner 1 µM)
How it was run: as §1

Alisertib + Lapatinib = compound: COc1cc(Nc2ncc3c(n2)-c2ccc(Cl)cc2C(c2c(F)cccc2OC)=NC3)ccc1C(=O)O [Alisertib] + CS(=O)(=O)CCNCc1ccc(-c2ccc3ncnc(Nc4ccc(OCc5cccc(F)c5)c(Cl)c4)c3c2)o1 [Lapatinib] (partner 2 µM)
How it was run: as §1

Cell Line	relative viability (Alisertib + OSI-027; first compound 0.005 µM)	relative viability (Alisertib + OSI-027; first compound 0.01581 µM)	relative viability (Alisertib + OSI-027; first compound 0.05 µM)	relative viability (Alisertib + OSI-027; first compound 0.1581 µM)	relative viability (Alisertib + OSI-027; first compound 0.5 µM)	relative viability (Alisertib + Luminespib; first compound 0.005 µM)	relative viability (Alisertib + Luminespib; first compound 0.01581 µM)	relative viability (Alisertib + Luminespib; first compound 0.05 µM)	relative viability (Alisertib + Luminespib; first compound 0.1581 µM)	relative viability (Alisertib + Luminespib; first compound 0.5 µM)	relative viability (Alisertib + Linsitinib; first compound 0.005 µM)	relative viability (Alisertib + Linsitinib; first compound 0.01581 µM)	relative viability (Alisertib + Linsitinib; first compound 0.05 µM)	relative viability (Alisertib + Linsitinib; first compound 0.1581 µM)	relative viability (Alisertib + Linsitinib; first compound 0.5 µM)	relative viability (Alisertib + Lapatinib; first compound 0.005 µM)	relative viability (Alisertib + Lapatinib; first compound 0.01581 µM)	relative viability (Alisertib + Lapatinib; first compound 0.05 µM)	relative viability (Alisertib + Lapatinib; first compound 0.1581 µM)	relative viability (Alisertib + Lapatinib; first compound 0.5 µM)
A-427	0.406	0.291	0.13	0.162	0.133	0.916	0.576	0.243	0.141	0.209	1.07	0.986	0.257	0.202	0.184	0.869	0.931	0.853	0.185	0.142
LCLC-97TM1	0.424	0.349	0.264	0.129	0.0853	0.787	0.601	0.318	0.177	0.12	0.197	0.185	0.135	0.114	0.0896	0.405	0.723	0.623	0.262	0.126
HCC-15	0.578	0.504	0.227	0.118	0.12	0.327	0.371	0.167	0.108	0.128	0.863	0.725	0.275	0.159	0.113	0.746	0.671	0.392	0.122	0.109
NCI-H650	0.396	0.459	0.239	0.203	0.159	0.685	0.579	0.239	0.126	0.198	0.614	0.727	0.437	0.217	0.188	0.767	0.558	0.266	0.301	0.208
UMC-11	0.328	0.219	0.165	0.175	0.189	0.85	0.428	0.173	0.141	0.132	0.755	0.495	0.168	0.148	0.158	0.438	0.29	0.162	0.163	0.158
NCI-H1651	0.621	0.609	0.417	0.288	0.203	0.81	0.782	0.306	0.263	0.169	0.843	0.774	0.451	0.217	0.22	0.716	0.589	0.434	0.192	0.193
NCI-H1792	0.665	0.622	0.399	0.257	0.178	0.481	0.533	0.225	0.195	0.17	0.546	0.372	0.177	0.076	0.0631	0.847	0.875	0.61	0.215	0.0684
NCI-H2023	0.333	0.324	0.317	0.162	0.0743	0.807	0.671	0.321	0.127	0.0912	0.653	0.505	0.355	0.285	0.108	0.848	0.602	0.41	0.135	0.0899
COR-L 105	0.59	0.66	0.546	0.248	0.267	0.773	0.685	0.56	0.382	0.252	0.879	0.722	0.682	0.332	0.241	0.322	0.413	0.319	0.223	0.263
NCI-H1734	0.562	0.436	0.296	0.277	0.18	0.172	0.214	0.149	0.146	0.132	0.869	0.86	0.469	0.334	0.213	0.905	0.746	0.404	0.264	0.175
NCI-H3122	0.86	0.754	0.599	0.336	0.149	0.105	0.101	0.0716	0.0737	0.0805	1.02	0.905	0.571	0.467	0.245	1.01	0.999	0.899	0.433	0.307
CAL-12T	0.488	0.277	0.137	0.165	0.118	0.412	0.205	0.1	0.169	0.188	0.741	0.603	0.187	0.157	0.162	0.556	0.526	0.195	0.198	0.169
NCI-H2085	0.591	0.746	0.469	0.222	0.235	0.419	0.341	0.309	0.342	0.329	0.876	0.85	0.516	0.389	0.281	0.752	0.692	0.422	0.306	0.323
